# From ChEMBL document CHEMBL2016481, “Cytotoxic cytochalasins from the endozoic fungus Phoma sp. of the giant jellyfish Nemopilema nomurai” (Bioorg Med Chem Lett, 2012)
# Calls of active or inactive are those of the source. The calls are words filed in the database; no cut-off is given here.
# Columns and labels:
# Format in all cases: functional, cell-based
# SK-OV-3 = experiment: Cytotoxicity against human SKOV3 cells after 48 hrs by SRB assay; details: SK-OV-3, 48 h
# SK-MEL-2 = experiment: Cytotoxicity against human SK-MEL-2 cells after 48 hrs by SRB assay; details: SK-MEL-2, 48 h
# A549 = experiment: Cytotoxicity against human A549 cells after 48 hrs by SRB assay; details: A549, 48 h
# HCT-15 = experiment: Cytotoxicity against human HCT15 cells after 48 hrs by SRB assay; details: HCT-15, 48 h
# XF498 = experiment: Cytotoxicity against human XF498 cells after 48 hrs by SRB assay; details: XF498, 48 h
# HeLa [1] = experiment: Cytotoxicity against human HeLa cells after 48 hrs by SRB assay
# HeLa [2] = experiment: Induction of mitochondrial apoptosis in human HeLa cells
SMILES,IC50 (SK-OV-3) [µM],IC50 (SK-MEL-2) [µM],IC50 (A549) [µM],IC50 (HCT-15) [µM],IC50 (XF498) [µM],IC50 (HeLa [1]) [µM],inhibition (HeLa [1]),Activity (HeLa [2])
CC1=C(C)[C@H]2[C@H](Cc3ccccc3)NC(=O)[C@]23OC(=O)/C=C/[C@H](O)CCC[C@@H](C)C/C=C/[C@H]3[C@@H]1O,4.51,5.28,5.99,5.76,12.3,–,–,–
C[C@H]1C/C=C/[C@H]2[C@@H]3O[C@]3(C)[C@@H](C)[C@H]3[C@H](Cc4ccccc4)NC(=O)[C@]32OC(=O)/C=C/CCCC1,4.19,8.35,12.4,3.91,–,–,–,–
C=C1[C@@H](C)[C@H]2[C@H](Cc3ccccc3)NC(=O)[C@]23OC(=O)/C=C/[C@H](O)CCC[C@@H](C)C/C=C/[C@H]3[C@@H]1O [CYTOCHALASIN B],0.46,0.67,2.13,1.94,2.36,7.9,Dose-dependent effect,Active
CC1=C(C)[C@H]2[C@H](Cc3ccccc3)NC(=O)[C@]23C(=O)/C=C/[C@H](O)CCC[C@@H](C)C/C=C/[C@H]3[C@@H]1O [DEOXAPHOMIN B],13.9,12.4,23.2,29.3,–,–,–,–
CC1=C[C@@H]2/C=C/C[C@H](C)CCC[C@@H](O)/C=C/C(=O)[C@]23C(=O)N[C@@H](Cc2ccccc2)[C@@H]3[C@@H]1C [DEOXAPHOMIN C],5.48,6.66,8.58,8.43,–,–,–,–
COc1cccc2c1C(=O)c1c(O)c3c(c(O)c1C2=O)C[C@@](O)(C(=O)CO)C[C@@H]3O[C@H]1C[C@H](N)[C@H](O)[C@H](C)O1 [DOXORUBICIN],0.002,0.002,–,0.035,0.015,–,–,–
